{"source": "patent US20240165112A1", "about": "“THERAPY FOR THE TREATMENT OF CANCER” (Bristol-Myers Squibb Company, priority 2022, published 2024)", "test_in_all_cases": "3D clonogenic assay in patient derived organoids", "assay_type_in_all_cases": "cell-based, human", "settings_in_all_cases": "8 to 13 days", "key": {"[1]": {"tested_on": "CXF2061 organoid, colon cancer", "protocol": "(§1) Five tumor cell lines (4T1.2, A549, EMT6, NCI-H460, and HT29) were treated with a range of paclitaxel or 5-FU concentrations in the presence of dimethlylsulfoxide (DMSO), 5 μM Compound 1, or 20 μM Compound 1. Cells were imaged 4 days after treatment and percent confluence was assessed by image quantification. EC50 values for cell confluence were used to assess chemotherapy potency. Eleven patient-derived tumor organoids (MAXFTN449, MAXFTN2990, PAXF1657, PAXF2131, CXF1256, CXF2129, CXF2061, LXFE2478, LXFE690, LXFA677, LXFA644) were seeded in a 3D matrix and treated with a range of paclitaxel, 5-FU, SN38, Gemcitabine, oxaliplatin, and carboplatin concentrations in the presence of DMSO, 5 μM Compound 1, or 20 μM Compound 1. After 8 to 13 days in culture, colonies were stained, imaged, and counted. A dose response curve was generated for chemotherapy alone or chemotherapy in combination with 5 or 20 μM Compound 1. Combination activity was defined as a percentage of the area under the chemotherapy dose response curve (cAUC) for Compound 1 combination groups compared to the cAUC of chemotherapy alone.\n(§2) For combination experiments, working stock solutions of all compounds were prepared in DMSO at concentrations of 660-fold the highest test concentration used and stored at −20° C. Platin compounds were prepared freshly on each treatment day. On each day of an experiment, an aliquot of the working stock solutions was used and stored at room temperature prior to and during treatment. First, 1:2 dilutions of 660-fold concentrated working stocks were prepared in DMSO (in case of monotherapy controls), or equal amounts of the compound working stocks were mixed (in case of drug combinations). Then, different dilutions of these 330-fold concentrated solutions were prepared in DMSO to give an 8×2 matrix combination layout with conditions. The DMSO dilutions were further diluted […] into cell culture medium (IMDM, supplemented with 20% (v/v) fetal bovine serum, and 50 μg/mL gentamicin) in an intermediate dilution plate. Finally, 10 μL taken from the intermediate dilution plate were transferred to 140 μL of cells and medium per well of the final assay plate. Thus, the DMSO dilutions used for the mono- and the combination-treatment were diluted 1:660, and the DMSO concentration in the assay was […].\n(§3) Tumors were passaged as subcutaneous xenografts in NMRI nu/nu mice. At a tumor volume of 400 to 1000 mm^3, tumor-bearing mice were euthanized, and tumors were collected under sterile conditions without delay. Tumors were mechanically disaggregated and subsequently incubated with an enzyme cocktail consisting of collagenase type IV (41 U/mL), DNase I (125 U/mL), hyaluronidase type III (100 U/mL), and dispase II (1 U/mL) in RPMI 1640 medium at 37° C. for 60 to 120 minutes. Cells were passed through sieves of 100 μm and 40 μm mesh size, and washed with RPMI 1640 medium. The percentage of viable cells was determined in a Neubauer-hemocytometer using trypan blue exclusion. Aliquots of the cells were frozen down and stored in liquid nitrogen vapor phase. On each day of an experiment, a frozen aliquot of tumor cells was thawed and used for preparation of assay plates.\n(§4) The clonogenic assay was carried out in a 96 well plate format using ultra low attachment plates. For each test, plates were prepared as follows: each test well contained a layer of semi-solid medium with tumor cells (50 μL), and a second layer of medium supernatant with or without test compound (100 μL). The cell layer consisted of […] to 12.5×10^3 tumor cells per well, which were seeded in 50 μL/well cell culture medium (IMDM, supplemented with 20% (v/v) fetal bovine serum, 50 μg/mL gentamicin, and 0.4% (w/v) agar). After 24 hours, the soft-agar layer was covered with 90 μL of the same culture medium without agar, and 10 μL of control medium or test compound after serial dilution in DMSO for the duration of the experiment (continuous exposure, 100 μL drug overlay)."}, "[2]": {"tested_on": "CXF1256 organoid, colon cancer", "protocol": "as §1, §2, §3, §4"}, "[3]": {"tested_on": "LXFE2478 organoid, NSCLC (squamous subtype)", "protocol": "as §1, §2, §3, §4"}, "[4]": {"tested_on": "MAXFTN449 organoid, breast cancer (triple negative)", "protocol": "as §1, §2, §3, §4"}, "[5]": {"tested_on": "PAXF2131 organoid, Pancreatic cancer", "protocol": "as §1, §2, §3, §4"}, "[6]": {"tested_on": "LXFA644 organoid, NSCLC (adenocarcinoma subtype)", "protocol": "as §1, §2, §3, §4"}, "[7]": {"tested_on": "LXFA677 organoid, NSCLC (adenocarcinoma subtype)", "protocol": "as §1, §2, §3, §4"}, "[8]": {"tested_on": "LXFE690 organoid, NSCLC (squamous subtype)", "protocol": "as §1, §2, §3, §4"}, "[9]": {"tested_on": "MAXFTN2990 organoid, breast cancer (triple negative)", "protocol": "as §1, §2, §3, §4"}, "[10]": {"tested_on": "CXF2129 organoid, colon cancer", "protocol": "as §1, §2, §3, §4"}, "[11]": {"tested_on": "PAXF1657 organoid, pancreatic cancer", "protocol": "as §1, §2, §3, §4"}}, "data": [{"smiles": "C[C@@H]1CC[C@@H](Nc2nc(NC(C)(C)C)ncc2C(N)=O)C[C@H]1O", "note": "[Compound 1, 2-(tert-butylamino)-4-((1R,3R,4R)-3-hydroxy-4-methylcyclohexylamino)-pyrimidine-5-carboxamide]", "values": [{"measurement": "% Reduction in Colony Formation with Compound 1 compared with DMSO, Mean", "setting": "[1]; Compound 1, 5 μM", "value": 8, "unit": "%"}, {"measurement": "% Reduction in Colony Formation with Compound 1 compared with DMSO, Mean", "setting": "[1]; Compound 1, 20 μM", "value": 9, "unit": "%"}, {"measurement": "% Reduction in Colony Formation with Compound 1 compared with DMSO, Mean", "setting": "[2]; Compound 1, 5 μM", "value": 90, "unit": "%"}, {"measurement": "% Reduction in Colony Formation with Compound 1 compared with DMSO, Mean", "setting": "[2]; Compound 1, 20 μM", "value": 92, "unit": "%"}, {"measurement": "% Reduction in Colony Formation with Compound 1 compared with DMSO, Mean", "setting": "[3]; Compound 1, 5 μM", "value": 39, "unit": "%"}, {"measurement": "% Reduction in Colony Formation with Compound 1 compared with DMSO, Mean", "setting": "[3]; Compound 1, 20 μM", "value": 28, "unit": "%"}, {"measurement": "% Reduction in Colony Formation with Compound 1 compared with DMSO, Mean", "setting": "[4]; Compound 1, 5 μM", "value": 56, "unit": "%"}, {"measurement": "% Reduction in Colony Formation with Compound 1 compared with DMSO, Mean", "setting": "[4]; Compound 1, 20 μM", "value": 54, "unit": "%"}, {"measurement": "% Reduction in Colony Formation with Compound 1 compared with DMSO, Mean", "setting": "[5]; Compound 1, 5 μM", "value": 62, "unit": "%"}, {"measurement": "% Reduction in Colony Formation with Compound 1 compared with DMSO, Mean", "setting": "[5]; Compound 1, 20 μM", "value": 68, "unit": "%"}, {"measurement": "% Reduction in Colony Formation with Compound 1 compared with DMSO, Mean", "setting": "[6]; Compound 1, 5 μM", "value": 12, "unit": "%"}, {"measurement": "% Reduction in Colony Formation with Compound 1 compared with DMSO, Mean", "setting": "[6]; Compound 1, 20 μM", "value": 24, "unit": "%"}, {"measurement": "% Reduction in Colony Formation with Compound 1 compared with DMSO, Mean", "setting": "[7]; Compound 1, 5 μM", "value": 27, "unit": "%"}, {"measurement": "% Reduction in Colony Formation with Compound 1 compared with DMSO, Mean", "setting": "[7]; Compound 1, 20 μM", "value": 32, "unit": "%"}, {"measurement": "% Reduction in Colony Formation with Compound 1 compared with DMSO, Mean", "setting": "[8]; Compound 1, 5 μM", "value": 73, "unit": "%"}, {"measurement": "% Reduction in Colony Formation with Compound 1 compared with DMSO, Mean", "setting": "[8]; Compound 1, 20 μM", "value": 79, "unit": "%"}, {"measurement": "% Reduction in Colony Formation with Compound 1 compared with DMSO, Mean", "setting": "[9]; Compound 1, 5 μM", "value": "−8", "unit": "%"}, {"measurement": "% Reduction in Colony Formation with Compound 1 compared with DMSO, Mean", "setting": "[9]; Compound 1, 20 μM", "value": 34, "unit": "%"}, {"measurement": "% Reduction in Colony Formation with Compound 1 compared with DMSO, Mean", "setting": "[10]; Compound 1, 5 μM", "value": 56, "unit": "%"}, {"measurement": "% Reduction in Colony Formation with Compound 1 compared with DMSO, Mean", "setting": "[10]; Compound 1, 20 μM", "value": 49, "unit": "%"}, {"measurement": "% Reduction in Colony Formation with Compound 1 compared with DMSO, Mean", "setting": "[11]; Compound 1, 5 μM", "value": 31, "unit": "%"}, {"measurement": "% Reduction in Colony Formation with Compound 1 compared with DMSO, Mean", "setting": "[11]; Compound 1, 20 μM", "value": 27, "unit": "%"}]}]}
